Source: ChEMBL document CHEMBL1177756, “Design and synthesis of 1,4,5,6-tetrahydropyrrolo[3,4-c]pyrazoles and pyrazolo[3,4-b]pyridines for Aurora-A kinase inhibitors” (Bioorg Med Chem Lett, 2010)

Assays:
Format in all cases: functional, cell-based
HCT-116 = assay: Cytotoxicity against human HCT116 cells after 48 hrs by MTT assay; conditions: HCT-116, 48 h
A549 = assay: Cytotoxicity against human A549 cells after 48 hrs by MTT assay; conditions: A549, 48 h
A2780 = assay: Cytotoxicity against human A2780 cells after 48 hrs by MTT assay; conditions: A2780, 48 h

| Structure (SMILES) | IC50 (HCT-116) [µM] | IC50 (A549) [µM] | IC50 (A2780) [µM] |
| --- | --- | --- | --- |
| O=C(Nc1n[nH]c2ncc(Br)cc12)c1ccc(Cl)cc1 | 34.7 | 51.4 | 51.6 |
| O=C(Nc1n[nH]c2ncc(Br)cc12)c1ccccc1Cl | 32.3 | > 200 | 46.7 |
| CC(=O)N1Cc2[nH]nc(NC(=O)c3ccc4ccccc4c3)c2C1 | > 200 | > 200 | > 200 |
| Cc1ccccc1C(=O)Nc1n[nH]c2ncc(Br)cc12 | 51.5 | > 200 | > 200 |
| O=C(Nc1n[nH]c2ncc(Br)cc12)c1ccc(F)cc1 | 44.1 | > 200 | 50 |
| O=C(Nc1n[nH]c2ncc(Br)cc12)c1ccc(C(F)(F)F)cc1 | 21.9 | > 200 | > 200 |
| COc1cc(OC)cc(C(=O)Nc2n[nH]c3c2CN(c2cccnc2C(C)=O)C3)c1 | 107 | 161 | > 200 |
| CO[C@H](C(=O)N1Cc2[nH]nc(NC(=O)c3ccc4c(c3)OCO4)c2C1)c1ccccc1 | > 200 | > 200 | > 200 |
| O=C(Nc1n[nH]c2ncc(Br)cc12)c1ccccc1C(F)(F)F | 40.3 | 75.1 | > 200 |
| COc1ccc(C(=O)Nc2n[nH]c3c2CN(C(=O)[C@@H](OC)c2ccccc2)C3)cc1 | 207 | 72 | > 200 |
| CC(=O)c1ncccc1N1Cc2[nH]nc(NC(=O)c3ccc4c(c3)OCO4)c2C1 | > 200 | > 200 | > 200 |
| O=C(Nc1n[nH]c2c1CN(C(=O)c1ccco1)C2)c1ccc2ccccc2c1 | 45 | 34 | 54 |
| CO[C@H](C(=O)N1Cc2[nH]nc(NC(=O)c3ccco3)c2C1)c1ccccc1 | > 200 | > 200 | > 200 |
| O=C(Nc1n[nH]c2ncc(Br)cc12)c1cc(Cl)cc(Cl)c1 | 49.2 | > 200 | > 200 |
| COc1ccc(C(=O)Nc2n[nH]c3c2CN(C(=O)c2ccccn2)C3)cc1 | > 200 | > 200 | > 200 |
| O=C(Nc1n[nH]c2ncc(Br)cc12)c1ccccn1 | 14.3 | 45.2 | 46.5 |
| Cc1cccnc1C(=O)Nc1n[nH]c2ncc(Br)cc12 | 23 | > 200 | > 200 |
| O=C(Nc1n[nH]c2c1CN(C(=O)c1ccccn1)C2)c1cc2c(c(OCc3ccccc3)c1)OCO2 | 104 | > 200 | > 200 |
| Cc1ccc(C(=O)N2Cc3[nH]nc(NC(=O)c4ccco4)c3C2)cc1 | > 200 | > 200 | > 200 |
| CC(=O)O[C@H](C(=O)N1Cc2[nH]nc(NC(=O)c3cc4c(c(OCc5ccccc5)c3)OCO4)c2C1)c1ccccc1 | > 200 | > 200 | > 200 |
| CC(=O)c1ncccc1N1Cc2[nH]nc(NC(=O)c3ccccc3)c2C1 | 168 | 175 | > 200 |

| Structure (SMILES) | IC50 (HCT-116) [µM] | IC50 (A549) [µM] | IC50 (A2780) [µM] |
| --- | --- | --- | --- |
| Cc1ccc(C(=O)N2Cc3[nH]nc(NC(=O)c4ccc5ccccc5c4)c3C2)cc1 | > 200 | > 200 | > 200 |
| COc1ccc(C(=O)Nc2n[nH]c3ncc(Br)cc23)cc1 | 24.9 | > 200 | > 200 |
| Cc1cccc(C(=O)Nc2n[nH]c3ncc(Br)cc23)c1 | 25.5 | > 200 | 49.9 |
| CO[C@H](C(=O)N1Cc2[nH]nc(NC(=O)c3cc4c(c(OCc5ccccc5)c3)OCO4)c2C1)c1ccccc1 | > 200 | > 200 | > 200 |
| Cc1ccc(C(=O)Nc2n[nH]c3c2CN(C(=O)[C@@H](O)c2ccccc2)C3)cc1 | 13 | 42 | 82 |
| Cc1ccc(C(=O)Nc2n[nH]c3c2CN(C(=O)c2ccccn2)C3)cc1 | > 200 | > 200 | > 200 |
| Cc1ccc(C(=O)Nc2n[nH]c3ncc(Br)cc23)cc1 | 39.8 | > 200 | > 200 |
| CO[C@H](C(=O)N1Cc2[nH]nc(NC(=O)c3ccc4ccccc4c3)c2C1)c1ccccc1 | 38 | 16 | 23 |
| CO[C@H](C(=O)N1Cc2[nH]nc(NC(=O)c3ccc(N4CCN(C)CC4)cc3)c2C1)c1ccccc1 | 13 | 43 | 11 |
| COc1ccccc1C(=O)Nc1n[nH]c2ncc(Br)cc12 | 15.6 | > 200 | 27 |
| COc1cc(OC)cc(C(=O)Nc2n[nH]c3c2CN(C(=O)[C@@H](O)c2ccccc2)C3)c1 | 143 | 76 | > 200 |
| O=C(Nc1n[nH]c2c1CN(C(=O)[C@@H](O)c1ccccc1)C2)c1ccco1 | 4 | 25 | 35 |
| COc1cc(OC)cc(C(=O)Nc2n[nH]c3c2CN(C(=O)c2ccccn2)C3)c1 | 236 | > 200 | > 200 |
| COc1cc(OC)cc(C(=O)Nc2n[nH]c3ncc(Br)cc23)c1 | 19.3 | 53.7 | 37.9 |
| O=C(Nc1n[nH]c2c1CN(C(=O)[C@@H](O)c1ccccc1)C2)c1ccc2c(c1)OCO2 | 135 | 84 | > 200 |
| O=C(Cc1ccc(Br)cc1)Nc1n[nH]c2ncc(Br)cc12 | 31.7 | 43.1 | 22.8 |
| COc1cc(OC)cc(C(=O)Nc2n[nH]c3c2CN(C(=O)[C@@H](OC)c2ccccc2)C3)c1 | 103 | 99 | > 200 |
| O=C(Nc1n[nH]c2ncc(Br)cc12)c1ccco1 | 43.5 | 61.9 | 42 |
| O=C(Nc1n[nH]c2c1CN(C(=O)c1ccccn1)C2)c1ccc2c(c1)OCO2 | > 200 | 118 | > 200 |
| CO[C@H](C(=O)N1Cc2[nH]nc(NC(=O)c3ccccc3)c2C1)c1ccccc1 | 26 | > 200 | > 200 |
